This note sets out measurements from PubChem BioAssay (NCI).

Structures are written as SMILES.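 48-hour exposure; five concentrations; linearly interpolated endpoints. TGI denotes the concentration required for complete inhibition of growth.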

Test systems include IGROV1 ovarian; SNB-19 CNS; A498 renal; NCI-H460 lung; HCC-2998 colon; SK-MEL-28 melanoma; DU-145 prostate; MDA-MB-435; K-562 leukemia; HT29 colon; PC-3 prostate; SK-MEL-2 melanoma; BT-549 breast; UO-31 renal; COLO 205 colon; SF-268 CNS; M14 melanoma; RXF 393 renal; HL-60(TB) leukemia.
Assay in all cases: NCI anticancer screen, dose series, 48 h

For the compound `C#CCn1ncc2c(SC)ncnc21`, the TGI in the experiment with IGROV1 ovarian, with SNB-19 CNS, in the experiment on A498 renal, in the experiment on NCI-H460 lung, in the experiment with HCC-2998 colon and in the experiment with SK-MEL-28 melanoma was above 100 µM in each case. Moreover, the TGI with DU-145 prostate, in the experiment with MDA-MB-435, in the experiment with K-562 leukemia, with HT29 colon, in the experiment with PC-3 prostate and with SK-MEL-2 melanoma was above 100 µM in each case. Further, the TGI in the experiment on BT-549 breast, in the experiment on UO-31 renal, in the experiment with COLO 205 colon, in the experiment with SF-268 CNS, in the experiment with M14 melanoma and with RXF 393 renal was above 100 µM each time.
Take `N#Cc1c2c(c(Nc3cccc(C(F)(F)F)c3)n3c1nc1ccccc13)CCC2`: the TGI in the experiment on A498 renal, in the experiment on SK-MEL-28 melanoma, in the experiment with DU-145 prostate, in the experiment with MDA-MB-435, in the experiment on HT29 colon and in the experiment on BT-549 breast was above 100 µM throughout. The TGI in the experiment on COLO 205 colon, in the experiment on SF-268 CNS and with RXF 393 renal was above 100 µM throughout.
With `S=c1nc(Cc2ccc(Cl)cc2)[nH][nH]1`, the TGI in the experiment with IGROV1 ovarian, with SNB-19 CNS, with A498 renal, in the experiment on NCI-H460 lung, with HCC-2998 colon and in the experiment on SK-MEL-28 melanoma was above 100 µM in each case. Further, the TGI in the experiment on DU-145 prostate, in the experiment on MDA-MB-435, in the experiment with K-562 leukemia, in the experiment with HT29 colon, in the experiment on PC-3 prostate and in the experiment on SK-MEL-2 melanoma was above 100 µM throughout. Moreover, the TGI with BT-549 breast, in the experiment with UO-31 renal, with COLO 205 colon and with M14 melanoma was above 100 µM each time.
With `CC(C)c1nc2cc(C(F)(F)F)ccc2[nH]c1=O`, the TGI with HL-60(TB) leukemia, with IGROV1 ovarian, with SNB-19 CNS, in the experiment on A498 renal, in the experiment with NCI-H460 lung and with HCC-2998 colon was above 100 µM throughout. In addition, the TGI with SK-MEL-28 melanoma, in the experiment on MDA-MB-435, in the experiment on K-562 leukemia, with HT29 colon, in the experiment with PC-3 prostate and in the experiment with SK-MEL-2 melanoma was above 100 µM in each case. The TGI in the experiment with BT-549 breast, in the experiment with UO-31 renal, in the experiment on COLO 205 colon, in the experiment with SF-268 CNS, in the experiment on M14 melanoma and in the experiment on RXF 393 renal was above 100 µM each time.
As for `O=c1[nH]cnc2c1sc1nc3ccccc3n12`, the TGI with IGROV1 ovarian, in the experiment with SNB-19 CNS, in the experiment on A498 renal, in the experiment with HCC-2998 colon, with SK-MEL-28 melanoma and with DU-145 prostate was above 100 µM in each case. Also, the TGI with MDA-MB-435, in the experiment with HT29 colon, in the experiment with PC-3 prostate, with SK-MEL-2 melanoma, in the experiment on BT-549 breast and in the experiment on UO-31 renal was above 100 µM throughout. In addition, the TGI is above 100 µM in the experiment with COLO 205 colon, above 100 µM with SF-268 CNS, above 100 µM with M14 melanoma and 84.4 µM in the experiment with RXF 393 renal.
`c1ccc2c(c1)Nc1ccccc1[P+]21c2ccccc2Nc2ccccc21`: the TGI in the experiment on HL-60(TB) leukemia is 0.485 µM; with SNB-19 CNS, 1.09 µM; with A498 renal it was 2.93 µM; with NCI-H460 lung, 2.81 µM; in the experiment with HCC-2998 colon, 2.44 µM; in the experiment with SK-MEL-28 melanoma, 1.65 µM. The TGI came out at 3.46 µM with DU-145 prostate; 1.27 µM in the experiment with MDA-MB-435; 1.75 µM in the experiment with K-562 leukemia; 2.9 µM with HT29 colon; 0.609 µM in the experiment on PC-3 prostate; 0.482 µM in the experiment with SK-MEL-2 melanoma. Moreover, the TGI turned out to be 23.3 µM in the experiment with UO-31 renal; 0.202 µM with COLO 205 colon; 6.63 µM with SF-268 CNS; 2.23 µM in the experiment with M14 melanoma; 0.891 µM in the experiment on RXF 393 renal.
In the case of `O=[N+]([O-])c1ccc(-c2nc3ccc([N+](=O)[O-])cc3[nH]2)cc1`, the TGI is above 100 µM with IGROV1 ovarian; above 100 µM in the experiment on SNB-19 CNS; 65.1 µM in the experiment on NCI-H460 lung; above 100 µM in the experiment with HCC-2998 colon; above 100 µM in the experiment with SK-MEL-28 melanoma; above 100 µM in the experiment with DU-145 prostate. In addition, the TGI in the experiment with MDA-MB-435 is 89.5 µM; in the experiment on HT29 colon it was above 100 µM; in the experiment with PC-3 prostate it was 70.7 µM; in the experiment with SK-MEL-2 melanoma, 59.6 µM; in the experiment on BT-549 breast it was 85.7 µM; with UO-31 renal, 61.4 µM. For the same compound, the TGI with COLO 205 colon is 28.2 µM; with SF-268 CNS, above 100 µM; in the experiment on M14 melanoma, above 100 µM; with RXF 393 renal, above 100 µM.
As for `CC1=NOC2(C1)C(=O)Nc1ccccc12` (centres undefined), the TGI was above 100 µM with HL-60(TB) leukemia; above 100 µM with IGROV1 ovarian; above 100 µM in the experiment on SNB-19 CNS; 96.4 µM with A498 renal; above 100 µM with NCI-H460 lung; above 100 µM in the experiment with HCC-2998 colon. The TGI with SK-MEL-28 melanoma, in the experiment on DU-145 prostate, with MDA-MB-435, in the experiment on K-562 leukemia, in the experiment on HT29 colon and with PC-3 prostate was above 100 µM in each case. In addition, the TGI with SK-MEL-2 melanoma, with COLO 205 colon, with SF-268 CNS, in the experiment on M14 melanoma and with RXF 393 renal was above 100 µM throughout.
As to `CCOc1ccc(Nc2nc3c(s2)C(=O)c2ccccc2C3=O)cc1`, the TGI in the experiment with HL-60(TB) leukemia was above 100 µM; in the experiment on IGROV1 ovarian, 26.7 µM; in the experiment with SNB-19 CNS, 30.1 µM; with A498 renal, 29.7 µM; in the experiment with NCI-H460 lung it was 38.9 µM; with HCC-2998 colon, 33.5 µM. Also, the TGI with SK-MEL-28 melanoma was 36.1 µM; with DU-145 prostate, 27.8 µM; with MDA-MB-435, 3.25 µM; in the experiment with K-562 leukemia, above 100 µM; in the experiment on PC-3 prostate, 20 µM; in the experiment on SK-MEL-2 melanoma it was 30.6 µM. In addition, the TGI with UO-31 renal was 28.4 µM; in the experiment with COLO 205 colon it was 46 µM; in the experiment on SF-268 CNS, 16.7 µM; in the experiment on M14 melanoma it was 27 µM; in the experiment on RXF 393 renal, 27.6 µM.
